T1: AnCDA (Aspergillus nidulans chitin deacetylase) (Aspergillus nidulans, UniProt Q5AQQ0)
T1 construct: gene cda; recombinant AnCDA (GenBank XM_677557.1), expressed in Pichia pastoris, His-tag purified
T1 sequence (Q5AQQ0 19-237): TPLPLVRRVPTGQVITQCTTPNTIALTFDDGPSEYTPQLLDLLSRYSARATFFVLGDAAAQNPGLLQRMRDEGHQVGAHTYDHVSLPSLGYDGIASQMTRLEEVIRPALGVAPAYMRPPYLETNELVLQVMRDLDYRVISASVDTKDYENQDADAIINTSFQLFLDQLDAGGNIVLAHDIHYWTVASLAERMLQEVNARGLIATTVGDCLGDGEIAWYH

B1: AnCDA (Aspergillus nidulans chitin deacetylase) (Aspergillus nidulans FGSC A4) (protein)
chain: T1 sequence (Q5AQQ0 19-237)
notes: recombinant AnCDA (GenBank XM_677557.1), expressed in Pichia pastoris, His-tag purified

Key:
[1] = biological target: T1, AnCDA (Aspergillus nidulans chitin deacetylase); experiment: acetate release assay on (GlcNAc)[…] with purified AnCDA; Dixon plot Ki (abstract also gives IC50 […]); assay type: biochemical
[2] = substrate: CC(=O)N[C@H]1[C@H](O[C@H]2[C@H](O)[C@@H](NC(C)=O)[C@H](O[C@H]3[C@H](O)[C@@H](NC(C)=O)C(O)O[C@@H]3CO)O[C@@H]2CO)O[C@H](CO)[C@@H](O[C@@H]2O[C@H](CO)[C@@H](O[C@@H]3O[C@H](CO)[C@@H](O)[C@H](O)[C@H]3NC(C)=O)[C@H](O)[C@H]2NC(C)=O)[C@@H]1O; experiment: enzyme kinetics (Km) by acetate release assay; assay type: biochemical, Aspergillus nidulans; conditions: Co2+ ([…] CoCl2 in assay) active site

Row | Molecule | Ki [1] [µM] | Km [2] [µM]
1 | Cc1ccc(-c2nc(CNC(=O)c3cccnc3Cl)no2)cc1 [J075-4187] | 31.6 | 
2 | B1 |  | 72
